Experiment [1] addresses T1, Androgen receptor (Homo sapiens) (UniProt P10275).
T1 sequence (whole entry): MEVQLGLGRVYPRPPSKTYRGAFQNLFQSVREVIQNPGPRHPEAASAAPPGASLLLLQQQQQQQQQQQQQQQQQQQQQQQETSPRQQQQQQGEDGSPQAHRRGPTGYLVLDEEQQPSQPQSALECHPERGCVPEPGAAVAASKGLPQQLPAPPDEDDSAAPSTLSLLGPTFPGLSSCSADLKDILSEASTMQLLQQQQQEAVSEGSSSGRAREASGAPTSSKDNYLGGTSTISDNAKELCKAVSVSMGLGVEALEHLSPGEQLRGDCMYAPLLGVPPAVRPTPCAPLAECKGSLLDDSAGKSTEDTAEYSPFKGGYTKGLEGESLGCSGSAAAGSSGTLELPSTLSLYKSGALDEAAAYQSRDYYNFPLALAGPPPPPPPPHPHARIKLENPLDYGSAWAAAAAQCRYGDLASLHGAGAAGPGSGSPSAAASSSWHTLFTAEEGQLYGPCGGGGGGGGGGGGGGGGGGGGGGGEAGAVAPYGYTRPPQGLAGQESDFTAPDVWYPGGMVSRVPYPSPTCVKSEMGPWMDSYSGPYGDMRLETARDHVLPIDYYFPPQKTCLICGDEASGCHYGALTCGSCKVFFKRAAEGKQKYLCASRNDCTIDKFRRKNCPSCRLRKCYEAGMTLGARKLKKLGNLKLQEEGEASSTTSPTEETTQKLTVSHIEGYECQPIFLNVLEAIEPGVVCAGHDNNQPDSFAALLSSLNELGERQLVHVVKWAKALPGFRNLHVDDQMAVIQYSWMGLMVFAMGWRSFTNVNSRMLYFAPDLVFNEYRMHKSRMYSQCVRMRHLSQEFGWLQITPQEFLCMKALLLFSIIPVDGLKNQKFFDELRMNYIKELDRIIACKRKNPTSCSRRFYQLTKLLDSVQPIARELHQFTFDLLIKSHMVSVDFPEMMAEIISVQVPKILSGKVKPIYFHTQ
As to the kind of experiment: Inhibition of androgen receptor in human LNCaP cells assessed as reduction in DHT-induced PSA mRNA expression level at 1 to 5 uM incubated for 24 hrs by qRT-PCR analysis. The format is cell-based. Particulars: dose 1-5 µM.

Experiment [2] deals with T1, Androgen receptor (Homo sapiens). Briefly: Inhibition of androgen receptor in human 22Rv1 cells assessed as reduction in DHT-induced AR mRNA expression level at 1 to 5 uM incubated for 24 hrs by qRT-PCR analysis. The format is cell-based. As to conditions: dose 1-5 µM.
The target is the same in experiment [3]. Briefly: Inhibition of androgen receptor in human 22Rv1 cells assessed as reduction in […] expression level at 1 to 10 uM incubated for 24 hrs by western blot analysis. As to conditions: dose 1-10 µM. It is filed as cell-based.
Another experiment concerns CWR22R. As to the kind of experiment: Antiproliferative activity against human 22Rv1 cells assessed as cell growth inhibition incubated for 72 hrs by MTT assay. It is filed as functional, cell-based. As to conditions: 22Rv1, 72 h.
The next experiment deals with PC-3. As to the kind of experiment: Antiproliferative activity against human PC-3 cells assessed as cell growth inhibition incubated for 72 hrs by MTT assay. Particulars: PC-3, 72 h. The format is functional, cell-based.
Experiment [4] has as its target T1, Androgen receptor (Homo sapiens). Briefly: Inhibition of androgen receptor in human 22Rv1 cells assessed as reduction in DHT-induced AR expression level at 1 to 5 uM incubated for 24 hrs by western blot analysis. The format is cell-based. Particulars: dose 1-5 µM.
The target is the same in experiment [5]. As to the kind of experiment: Inhibition of androgen receptor in human LNCaP cells assessed as reduction in DHT-induced AR expression level at 1 to 5 uM incubated for 24 hrs by western blot analysis. It is filed as cell-based. As to conditions: dose 1-5 µM.
For another experiment, the system named is LNCaP. As to the kind of experiment: Antiproliferative activity against human LNCaP cells assessed as cell growth inhibition incubated for 72 hrs by MTT assay. The format is functional, cell-based.
Experiment [6] addresses T1, Androgen receptor (Homo sapiens). Briefly: Inhibition of androgen receptor in human 22Rv1 cells assessed as reduction in BCL-2 expression level at 1 to 10 uM incubated for 24 hrs by western blot analysis. The format is cell-based. As to conditions: dose 1-10 µM.
For experiment [7] the target is unchanged. As to the kind of experiment: Inhibition of androgen receptor in human 22Rv1 cells assessed as reduction in DHT-induced PSA mRNA expression level at 1 to 5 uM incubated for 24 hrs by qRT-PCR analysis. It is filed as cell-based. Particulars: dose 1-5 µM.
For experiment [8] the target is unchanged. As to the kind of experiment: Inhibition of androgen receptor in human LNCaP cells assessed as reduction in DHT-induced AR mRNA expression level at 1 to 5 uM incubated for 24 hrs by qRT-PCR analysis. Particulars: dose 1-5 µM. The format is cell-based.
Experiment [9] has the same target. As to the kind of experiment: Inhibition of androgen receptor in human LNCaP cells assessed as reduction in DHT-induced PSA level at 1 to 5 uM incubated for 24 hrs by western blot analysis. The format is cell-based. As to conditions: dose 1-5 µM.
The target is the same in experiment [10]. As to the kind of experiment: Inhibition of androgen receptor in human PC-3 cells assessed as inhibition of AR transcription activity by dual-luciferase reporter assays. It is filed as cell-based.
For experiment [11] the target is unchanged. Briefly: Inhibition of androgen receptor in human 22Rv1 cells assessed as reduction in DHT-induced PSA level at 1 to 5 uM incubated for 24 hrs by western blot analysis. As to conditions: dose 1-5 µM. It is filed as cell-based.

pIC50: −log10 of the molar value. Active and inactive are the calls of the source. No cut-off for these calls is given here.

As to `CC1=CC2C(C(C)C)=C(O)C(=O)/C(=C\NCCS(=O)(=O)O)C2C(O)=C1c1c(C)cc2c(c1O)/C(=C/NCCS(=O)(=O)O)C(=O)C(O)=C2C(C)C` (centres undefined), the inhibition result in experiment [1], in experiment [2], in experiment [5], in [7], in [8] and in experiment [9] was “Dose-Dependent Effect” in each case. The inhibition result in [10] was “Dose-Dependent Effect”. In addition, the inhibition entry in [3], in experiment [4], in [6] and in experiment [11] was “Active” in each case. Further, the pIC50 is 6.04 in the experiment on CWR22R, 5.50 in the experiment on PC-3 and 6.46 with LNCaP.

Values taken from ChEMBL document CHEMBL5223107 (Bioorg Med Chem Lett, 2022).
